Numbered stars: 1 amine (or outer) side, 2 acyl side, 3 side chain; on linkers, the order of the positions; unused ones are H or OH. Bridge positions count the residues as written; N and C are the ends. Square brackets hold non-standard residues; d marks the D form. Peptide text beside a SMILES is read from it. ξ: configuration not given here. Trp(5-F) = N[C@@H](Cc1c[nH]c2ccc(F)cc12)C(=O)O; X8 = O=C(CCCCCSCc1cccc(CSCCN[*:1])c1)[*:2]; X9 = O=C(CCCCCSCc1ccc(CSCCN[*:1])cc1)[*:2]; Phe(4-CN) = N#Cc1ccc(C[C@H](N)C(=O)O)cc1; Phe(4-Cl) = N[C@@H](Cc1ccc(Cl)cc1)C(=O)O; X1 = O=C(CCSCc1cccc(CSCCN[*:1])c1)[*:2]; 1Nal = N[C@@H](Cc1cccc2ccccc12)C(=O)O; 2Nal = N[C@@H](Cc1ccc2ccccc2c1)C(=O)O; Tiq1c(1S) = O=C(O)[C@H]1NCCc2ccccc21; mXylylene = c1cc(C[*:1])cc(C[*:2])c1; NMeY = CN[C@@H](Cc1ccc(O)cc1)C(=O)O; NMeF = CN[C@@H](Cc1ccccc1)C(=O)O; Tic = O=C(O)[C@@H]1Cc2ccccc2CN1; Cha = N[C@@H](CC1CCCCC1)C(=O)O; Tle = CC(C)(C)[C@H](N)C(=O)O; αMeP = C[C@@]1(C(=O)O)CCCN1; Pip = O=C(O)[C@@H]1CCCCN1; Nva = CCC[C@H](N)C(=O)O; Aib = CC(C)(N)C(=O)O; ξP = O=C(O)C1CCCN1; Mpa = O=C(O)CCS
Target: human PCSK9 / human LDLR EGFa domain (Homo sapiens, UniProt Q8NBP7)
Sequence (Q8NBP7 153-692): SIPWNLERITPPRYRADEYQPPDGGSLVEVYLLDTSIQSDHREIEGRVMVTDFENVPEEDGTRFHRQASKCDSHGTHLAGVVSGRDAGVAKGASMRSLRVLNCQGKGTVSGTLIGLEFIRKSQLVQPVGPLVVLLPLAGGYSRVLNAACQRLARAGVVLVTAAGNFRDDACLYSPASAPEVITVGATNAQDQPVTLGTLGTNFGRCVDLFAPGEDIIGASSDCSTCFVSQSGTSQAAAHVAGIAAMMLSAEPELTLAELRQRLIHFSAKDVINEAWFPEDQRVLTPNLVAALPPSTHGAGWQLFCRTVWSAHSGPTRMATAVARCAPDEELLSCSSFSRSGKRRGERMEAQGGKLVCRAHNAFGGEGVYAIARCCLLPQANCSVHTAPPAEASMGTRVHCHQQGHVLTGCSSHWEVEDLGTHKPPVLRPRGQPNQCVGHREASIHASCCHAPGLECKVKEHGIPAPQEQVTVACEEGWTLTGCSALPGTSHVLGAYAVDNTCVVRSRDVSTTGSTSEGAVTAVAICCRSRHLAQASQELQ
Assay: TR-FRET assay of inhibition of the PCSK9-LDLR protein-protein interaction
Format: binding
Details: 20 nM human PCSK9, 20 nM human LDLR EGFa domain, 2 hours room temperature
Protocol: A time-resolved fluorescence resonance energy (TR-FRET) assay was used to measure inhibition of the PCSK9-LDLR protein-protein interaction. Briefly, 20 nM avitag-biotinylated human PCSK9 was incubated with 20 nM his-tagged human LDLR EGFa domain in the presence of 5 nM LANCE Ulight Streptavidin (Perkin Elmer) and 5 nM europium-Anti-6×His (Perkin Elmer) for 2 hours covered at room temperature in buffer containing 50 mM HEPES, 150 mM NaCl, 5 mM CaCl2), 0.01% BSA and 0.01% Surfactant P20. Compounds were tested in dose-response and concentrations giving half-maximal inhibition calculated using a 4-parameter fit equation.

Row | Compound | IC50 [nM]
1 | C[C@@H]1NC(=O)[C@@H]2CCCN2C(=O)[C@H](Cc2c[nH]c3ccc(F)cc23)NC(=O)[C@H](Cc2c[nH]c3ccc(F)cc23)NC(=O)[C@@H](C)NC(=O)[C@@H]2CCCN2C(=O)CCSCc2cccc(c2)CSCCNC(=O)[C@@H]2CCCN2C(=O)[C@H](Cc2cccc3ccccc23)NC1=O [Compound 054] (cyclo([1Nal]P[X1]P[dA][Trp(5-F)][Trp(5-F)]PA)) | 100 to 1000
2 | C[C@@H]1NC(=O)[C@@H]2CCCN2C(=O)[C@H](Cc2c[nH]c3ccc(F)cc23)NC(=O)[C@H](Cc2cccc3ccccc23)NC(=O)[C@@H](C)NC(=O)[C@@H]2CCCN2C(=O)CCSCc2cccc(c2)CSCCNC(=O)[C@@H]2CCCN2C(=O)[C@H](Cc2cccc3ccccc23)NC1=O [Compound 055] (cyclo([1Nal]P[X1]P[dA][1Nal][Trp(5-F)]PA)) | 1000 to 12100
3 | C[C@@H]1NC(=O)[C@@H]2CCCN2C(=O)[C@H](Cc2c[nH]c3ccc(F)cc23)NC(=O)[C@H](Cc2c[nH]c3ccc(F)cc23)NC(=O)[C@@H](C)NC(=O)[C@@H]2CCCN2C(=O)CCSCc2cccc(c2)CSCCNC(=O)[C@@H]2CCCN2C(=O)[C@H](Cc2ccccc2)NC1=O [Compound 057] (cyclo(AFP[X1]P[dA][Trp(5-F)][Trp(5-F)]P)) | 100 to 1000
4 | C[C@@H]1NC(=O)CCSCc2cccc(c2)CSCCNC(=O)[C@@H]2CCCN2C(=O)[C@H](Cc2ccc(O)cc2)NC(=O)[C@H](C)NC(=O)[C@@H]2CCCN2C(=O)[C@H](Cc2c[nH]c3ccc(F)cc23)NC(=O)[C@H](Cc2c[nH]c3ccc(F)cc23)NC(=O)[C@@H](C)NC1=O [Compound 058] (cyclo(AYP[X1]A[dA][Trp(5-F)][Trp(5-F)]P)) | 21000 to 50000
5 | C[C@@H]1NC(=O)CCSCc2cccc(c2)CSCCNC(=O)[C@@H]2CCCN2C(=O)[C@H](Cc2cccc3ccccc23)NC(=O)[C@H](C)NC(=O)[C@@H]2CCCN2C(=O)[C@H](Cc2c[nH]c3ccc(F)cc23)NC(=O)[C@H](Cc2c[nH]c3ccc(F)cc23)NC(=O)[C@@H](C)NC1=O [Compound 065] (cyclo([1Nal]P[X1]A[dA][Trp(5-F)][Trp(5-F)]PA)) | 21000 to 50000
6 | C[C@@H]1NC(=O)CCSCc2cccc(c2)CSCCNC(=O)[C@@H]2CCCN2C(=O)[C@H](Cc2ccccc2)N(C)C(=O)[C@H](C)NC(=O)[C@@H]2CCCN2C(=O)[C@H](Cc2c[nH]c3ccc(F)cc23)NC(=O)[C@H](Cc2cccc3ccccc23)NC(=O)[C@@H](C)NC1=O [Compound 067] (cyclo([1Nal][Trp(5-F)]PA[NMeF]P[X1]A[dA])) | 1000 to 12100
7 | C[C@@H]1NC(=O)CCSCc2cccc(c2)CSCCNC(=O)[C@@H]2CCCN2C(=O)[C@H](Cc2ccc3ccccc3c2)NC(=O)[C@H](C)NC(=O)[C@@H]2CCCN2C(=O)[C@H](Cc2c[nH]c3ccc(F)cc23)NC(=O)[C@H](Cc2cccc3ccccc23)NC(=O)[C@@H](C)NC1=O [Compound 079] (cyclo([1Nal][Trp(5-F)]PA[2Nal]P[X1]A[dA])) | 100 to 1000
8 | C[C@@H]1NC(=O)CCSCc2cccc(c2)CSCCNC(=O)[C@@H]2CCCN2C(=O)[C@H](Cc2cccc3ccccc23)NC(=O)[C@H](C)NC(=O)[C@@H]2CCCN2C(=O)[C@H](Cc2c[nH]c3ccc(F)cc23)NC(=O)[C@H](Cc2cccc3ccccc23)NC(=O)[C@@H](C)NC1=O [Compound 080] (cyclo([1Nal]P[X1]A[dA][1Nal][Trp(5-F)]PA)) | 1000 to 12100
9 | C[C@@H]1NC(=O)CCSCc2cccc(c2)CSC[C@@H](C(N)=O)NC(=O)[C@@H]2CCCN2C(=O)[C@H](Cc2ccc(C#N)cc2)NC(=O)[C@H](C)NC(=O)[C@@H]2CCCN2C(=O)[C@H](Cc2c[nH]c3ccc(F)cc23)NC(=O)[C@H](Cc2c[nH]c3ccc(F)cc23)NC(=O)[C@@H](C)NC1=O [Compound 081] ([Mpa]A[dA][Trp(5-F)][Trp(5-F)]PA[Phe(4-CN)]PC-NH2; linker 1-10 via mXylylene) | 1000 to 12100
10 | C[C@@H]1NC(=O)CCSCc2cccc(c2)CSC[C@@H](C(N)=O)NC(=O)[C@@H]2CCCN2C(=O)[C@H](Cc2ccc(Cl)cc2)NC(=O)[C@H](C)NC(=O)[C@@H]2CCCN2C(=O)[C@H](Cc2c[nH]c3ccc(F)cc23)NC(=O)[C@H](Cc2c[nH]c3ccc(F)cc23)NC(=O)[C@@H](C)NC1=O [Compound 083] ([Mpa]A[dA][Trp(5-F)][Trp(5-F)]PA[Phe(4-Cl)]PC-NH2; linker 1-10 via mXylylene) | 21000 to 50000
11 | C[C@@H]1NC(=O)CCSCc2cccc(c2)CSCCNC(=O)[C@@H]2CCCN2C(=O)[C@H](Cc2ccccc2)N(C)C(=O)[C@H](C)NC(=O)[C@@H]2CCCCN2C(=O)[C@H](Cc2c[nH]c3ccc(F)cc23)NC(=O)[C@H](Cc2c[nH]c3ccc(F)cc23)NC(=O)[C@@H](C)NC1=O [Compound 088] (cyclo(A[NMeF]P[X1]A[dA][Trp(5-F)][Trp(5-F)][Pip])) | 21000 to 50000
12 | C[C@@H]1NC(=O)CCSCc2cccc(c2)CSCCNC(=O)[C@@H]2CCCN2C(=O)[C@H](Cc2ccc(O)cc2)NC(=O)[C@H](C)NC(=O)[C@@H]2Cc3ccccc3CN2C(=O)[C@H](Cc2c[nH]c3ccc(F)cc23)NC(=O)[C@H](Cc2c[nH]c3ccc(F)cc23)NC(=O)[C@@H](C)NC1=O [Compound 091] (cyclo(AYP[X1]A[dA][Trp(5-F)][Trp(5-F)][Tic])) | 100 to 1000
13 | C[C@@H]1NC(=O)CCSCc2cccc(c2)CSCCNC(=O)[C@@H]2CCCN2C(=O)[C@H](Cc2ccc(O)cc2)NC(=O)[C@H](C)NC(=O)[C@@H]2c3ccccc3CCN2C(=O)[C@H](Cc2c[nH]c3ccc(F)cc23)NC(=O)[C@H](Cc2c[nH]c3ccccc23)NC(=O)[C@@H](C)NC1=O [Compound 092] (cyclo(AYP[X1]A[dA]W[Trp(5-F)][Tiq1c(1S)])) | 21000 to 50000
14 | CCC[C@@H]1NC(=O)CCSCc2cccc(c2)CSCCNC(=O)[C@@H]2CCCN2C(=O)[C@H](Cc2ccc(O)cc2)NC(=O)[C@H](C)NC(=O)[C@@H]2CCCN2C(=O)[C@H](Cc2c[nH]c3ccc(F)cc23)NC(=O)[C@H](Cc2c[nH]c3ccc(F)cc23)NC(=O)[C@@H](C)NC1=O [Compound 093] (cyclo(AYP[X1][Nva][dA][Trp(5-F)][Trp(5-F)]P)) | 1000 to 12100
15 | C[C@@H]1NC(=O)[C@@H]2CCCN2C(=O)[C@H](Cc2c[nH]c3ccc(F)cc23)NC(=O)[C@H](Cc2c[nH]c3ccc(F)cc23)NC(=O)[C@@H](C)NC(=O)C(C)(C)NC(=O)CCSCc2cccc(c2)CSCCNC(=O)[C@@H]2CCCN2C(=O)[C@H](Cc2ccc(O)cc2)NC1=O [Compound 094] (cyclo(AYP[X1][Aib][dA][Trp(5-F)][Trp(5-F)]P)) | 100 to 1000
16 | C[C@@H]1NC(=O)[C@@H]2CCCN2C(=O)[C@H](Cc2c[nH]c3ccc(F)cc23)NC(=O)[C@H](Cc2c[nH]c3ccc(F)cc23)NC(=O)[C@@H](C)NC(=O)[C@H](C(C)(C)C)NC(=O)CCSCc2cccc(c2)CSCCNC(=O)[C@@H]2CCCN2C(=O)[C@H](Cc2ccc(O)cc2)NC1=O [Compound 095] (cyclo(AYP[X1][Tle][dA][Trp(5-F)][Trp(5-F)]P)) | 100 to 1000
17 | C[C@@H]1NC(=O)[C@@H]2CCCN2C(=O)[C@H](Cc2c[nH]c3ccc(F)cc23)NC(=O)[C@H](Cc2c[nH]c3ccc(F)cc23)NC(=O)CNC(=O)CCCCCSCc2cccc(c2)CSCCNC(=O)C2CCCN2C(=O)[C@H](Cc2ccc(O)cc2)NC1=O (some centres unmarked) [Compound 098] (cyclo(AY[ξP][X8]G[Trp(5-F)][Trp(5-F)]P)) | 100 to 1000
18 | C[C@@H]1NC(=O)[C@@H]2CCCN2C(=O)[C@H](Cc2c[nH]c3ccc(F)cc23)NC(=O)[C@H](Cc2c[nH]c3ccc(F)cc23)NC(=O)CNC(=O)CCCCCSCc2ccc(cc2)CSCCNC(=O)C2CCCN2C(=O)[C@H](Cc2ccc(O)cc2)NC1=O (some centres unmarked) [Compound 099] (cyclo(AY[ξP][X9]G[Trp(5-F)][Trp(5-F)]P)) | 1000 to 12100
19 | C[C@@]12CCCN1C(=O)[C@H](Cc1ccc(O)cc1)NC(=O)[C@H](Cc1cnc[nH]1)NC(=O)[C@@H]1CCCN1C(=O)[C@H](Cc1c[nH]c3ccc(F)cc13)NC(=O)[C@H](CC1CCCCC1)NC(=O)CNC(=O)[C@H](CCCCN)NC(=O)CCSCc1cccc(c1)CSCCNC2=O [Compound 104] (cyclo([Cha][Trp(5-F)]PHY[αMeP][X1]KG)) | 1000 to 12100
20 | C[C@@H](O)[C@@H]1NC(=O)CNC(=O)[C@H](CCCCN)NC(=O)CCSCc2cccc(c2)CSCCNC(=O)[C@]2(C)CCCN2C(=O)[C@H](Cc2ccc(O)cc2)NC(=O)[C@H](Cc2cnc[nH]2)NC(=O)[C@@H]2CCCN2C(=O)[C@H](Cc2c[nH]c3ccc(F)cc23)NC1=O [Compound 105] (cyclo(GT[Trp(5-F)]PHY[αMeP][X1]K)) | 100 to 1000
21 | CN1C(=O)[C@H](Cc2cnc[nH]2)NC(=O)[C@@H]2CCCN2C(=O)[C@H](Cc2c[nH]c3ccc(F)cc23)NC(=O)[C@H](CC2CCCCC2)NC(=O)CNC(=O)[C@H](CCCCN)NC(=O)CCSCc2cccc(c2)CSCCNC(=O)[C@]2(C)CCCN2C(=O)[C@@H]1Cc1ccc(O)cc1 [Compound 106] (cyclo([Cha][Trp(5-F)]PH[NMeY][αMeP][X1]KG)) | 100 to 1000
22 | CN1C(=O)[C@H](Cc2cnc[nH]2)NC(=O)C(C)(C)NC(=O)[C@H](Cc2c[nH]c3ccc(F)cc23)NC(=O)[C@H](Cc2c[nH]c3ccc(F)cc23)NC(=O)CNC(=O)[C@H](CCCCN)NC(=O)CCSCc2cccc(c2)CSCCNC(=O)[C@]2(C)CCCN2C(=O)[C@@H]1Cc1ccc(O)cc1 [Compound 111] (cyclo([Aib]H[NMeY][αMeP][X1]KG[Trp(5-F)][Trp(5-F)])) | 1000 to 12100
23 | C[C@@H]1NC(=O)CNC(=O)[C@H](CCCCN)NC(=O)CCSCc2cccc(c2)CSC[C@@H](C(N)=O)NC(=O)[C@@H]2CCCN2C(=O)[C@H](Cc2ccc(O)cc2)NC(=O)[C@H](Cc2cnc[nH]2)NC(=O)[C@H](CC(=O)O)NC(=O)[C@H](Cc2c[nH]c3ccc(F)cc23)NC1=O [Compound 112] ([Mpa]KGA[Trp(5-F)]DHYPC-NH2; linker 1-10 via mXylylene) | 100 to 1000

From US11814445B2, “Cyclic polypeptides for PCSK9 inhibition” (Ra Pharmaceuticals, Inc., priority 2018, dated 2023)
